Data set [1] has as its target CTNNB1. Put plainly: HEK293-TLR8, 100 nM ASO, then resiquimod.
Data set [2] has as its target CTNNB1. Nature of the data set: HEK293-TLR7, 100 nM ASO, then resiquimod.

Consider ten substances from the OligoGym collection.

HELM strings list units from the 5' end as sugar, base in round brackets, then linkage (d deoxyribose, r ribose, m 2'-O-methyl, p phosphodiester). [sp] = phosphorothioate linkage

As for “RNA1{m(G)[sp].m(C)[sp].m(C)[sp].m(C)[sp].m(A)[sp].d(T)[sp].d(C)[sp].d(C)[sp].d(A)[sp].d(T)[sp].d(G)[sp].d(A)[sp].d(G)[sp].d(G)[sp].d(T)[sp].m(C)[sp].m(C)[sp].m(U)[sp].m(G)[sp].m(G)}$$$$”, the TLR8 potentiation (NF-kB luciferase) (fold of resiquimod alone) with CTNNB1 [1] worked out at 1.46. Further, in the data set with CTNNB1 [2], the TLR7 signal (NF-kB luciferase) (% of resiquimod alone) is 31.7.

As to “RNA1{m(G)[sp].m(C)[sp].m(C)[sp].m(G)[sp].m(C)[sp].d(T)[sp].d(T)[sp].d(T)[sp].d(T)[sp].d(C)[sp].d(T)[sp].d(G)[sp].d(T)[sp].d(C)[sp].d(T)[sp].m(G)[sp].m(G)[sp].m(U)[sp].m(U)[sp].m(C)}$$$$”, in the data set with CTNNB1 [1], the TLR8 potentiation (NF-kB luciferase) (fold of resiquimod alone) was 2. This substance also gave a TLR7 signal (NF-kB luciferase) (% of resiquimod alone) with CTNNB1 [2] of 70.5.

Consider “RNA1{m(G)[sp].m(C)[sp].m(G)[sp].m(U)[sp].m(G)[sp].d(T)[sp].d(C)[sp].d(T)[sp].d(G)[sp].d(G)[sp].d(A)[sp].d(A)[sp].d(G)[sp].d(C)[sp].d(T)[sp].m(U)[sp].m(C)[sp].m(C)[sp].m(U)[sp].m(U)}$$$$”, for which the TLR8 potentiation (NF-kB luciferase) (fold of resiquimod alone) with CTNNB1 [1] was determined as 0.91. The substance also displayed a TLR7 signal (NF-kB luciferase) (% of resiquimod alone) with CTNNB1 [2] of 40.7.

Turning to “RNA1{m(G)[sp].m(C)[sp].m(U)[sp].m(U)[sp].m(A)[sp].d(T)[sp].d(T)[sp].d(T)[sp].d(T)[sp].d(A)[sp].d(A)[sp].d(G)[sp].d(C)[sp].d(A)[sp].d(T)[sp].m(A)[sp].m(U)[sp].m(U)[sp].m(A)[sp].m(A)}$$$$”, the TLR8 potentiation (NF-kB luciferase) (fold of resiquimod alone) with CTNNB1 [1] stood at 1.9. The TLR7 signal (NF-kB luciferase) (% of resiquimod alone) with CTNNB1 [2] was 41.1.

On to “RNA1{m(G)[sp].m(G)[sp].m(A)[sp].m(U)[sp].m(C)[sp].d(T)[sp].d(G)[sp].d(C)[sp].d(A)[sp].d(T)[sp].d(G)[sp].d(C)[sp].d(C)[sp].d(C)[sp].d(T)[sp].m(C)[sp].m(A)[sp].m(U)[sp].m(C)[sp].m(U)}$$$$”, for which the TLR8 potentiation (NF-kB luciferase) (fold of resiquimod alone) with CTNNB1 [1] is 1.15. This substance returned a TLR7 signal (NF-kB luciferase) (% of resiquimod alone) with CTNNB1 [2] of 47.9.

As for “RNA1{m(G)[sp].m(G)[sp].m(C)[sp].m(C)[sp].m(A)[sp].d(T)[sp].d(C)[sp].d(T)[sp].d(C)[sp].d(T)[sp].d(G)[sp].d(C)[sp].d(T)[sp].d(T)[sp].d(C)[sp].m(U)[sp].m(U)[sp].m(G)[sp].m(G)[sp].m(U)}$$$$”, the TLR8 potentiation (NF-kB luciferase) (fold of resiquimod alone) with CTNNB1 [1] is 0.82. This substance also had a TLR7 signal (NF-kB luciferase) (% of resiquimod alone) with CTNNB1 [2] of 35.9.

Turning to “RNA1{m(G)[sp].m(G)[sp].m(G)[sp].m(A)[sp].m(A)[sp].d(A)[sp].d(G)[sp].d(G)[sp].d(T)[sp].d(T)[sp].d(A)[sp].d(T)[sp].d(G)[sp].d(C)[sp].d(A)[sp].m(A)[sp].m(G)[sp].m(G)[sp].m(U)[sp].m(C)}$$$$”, the TLR8 potentiation (NF-kB luciferase) (fold of resiquimod alone) with CTNNB1 [1] was found to be 1.76. Also, the TLR7 signal (NF-kB luciferase) (% of resiquimod alone) with CTNNB1 [2] amounted to 51.4.

On to “RNA1{m(G)[sp].m(G)[sp].m(G)[sp].m(U)[sp].m(C)[sp].d(C)[sp].d(A)[sp].d(C)[sp].d(C)[sp].d(A)[sp].d(C)[sp].d(T)[sp].d(A)[sp].d(G)[sp].d(C)[sp].m(C)[sp].m(A)[sp].m(G)[sp].m(U)[sp].m(A)}$$$$”, for which the TLR8 potentiation (NF-kB luciferase) (fold of resiquimod alone) with CTNNB1 [1] stood at 1.18. In the data set with CTNNB1 [2], this substance came in with a TLR7 signal (NF-kB luciferase) (% of resiquimod alone) of 33.5.

With “RNA1{m(G)[sp].m(G)[sp].m(G)[sp].m(U)[sp].m(C)[sp].d(C)[sp].d(A)[sp].d(T)[sp].d(A)[sp].d(C)[sp].d(C)[sp].d(C)[sp].d(A)[sp].d(A)[sp].d(G)[sp].m(G)[sp].m(C)[sp].m(A)[sp].m(U)[sp].m(C)}$$$$”, in the data set with CTNNB1 [1], the TLR8 potentiation (NF-kB luciferase) (fold of resiquimod alone) is 1.08. This substance also returned a TLR7 signal (NF-kB luciferase) (% of resiquimod alone) in the data set with CTNNB1 [2] of 47.6.

As to “RNA1{m(G)[sp].m(G)[sp].m(U)[sp].m(C)[sp].m(C)[sp].d(A)[sp].d(T)[sp].d(A)[sp].d(C)[sp].d(C)[sp].d(C)[sp].d(A)[sp].d(A)[sp].d(G)[sp].d(G)[sp].m(C)[sp].m(A)[sp].m(U)[sp].m(C)[sp].m(C)}$$$$”, the TLR8 potentiation (NF-kB luciferase) (fold of resiquimod alone) with CTNNB1 [1] turned out to be 1. This substance also showed a TLR7 signal (NF-kB luciferase) (% of resiquimod alone) with CTNNB1 [2] of 105.
